Patent US20260248787A9, “MEDICAMENT FOR TREATING CANCER COMPRISING OPTICALLY ACTIVE AZABICYCLO RING DERIVATIVE” (Sumitomo Pharma Co., Ltd., priority 2023, published 2026)
Like-named read-outs stand apart in the source and are kept apart here.

Assay: Phase 1/2 clinical study, plasma pharmacokinetic evaluation
Assay type: in vivo, human
Conditions: for time of maximum concentration: after dosing; for AUC(0-t) / Cmax / Tmax / half-life: human, plasma, oral; for half-life: read-out: t1/2 (converted)
Description: In the present test of the present compound, PK samples have been collected in up to 24 patients dosed in dose groups of 40, 80, 100, and 120 mg BID Arm A, and in dose groups of 40 and 60 mg BID Arm B (Table 6). Large preliminary PK inter-patient variability was observed.
(1) In the present study, PK samples have been collected in up to 42 patients dosed in dose groups of 40, 80, 100, 120, 140 and 200 mg BID Arm A, and in dose groups of 40, 60, 100, and 200 mg BID Arm B (Table 15).
(2) In the present study, PK samples have been collected in patients dosed in dose groups of 40, 80, 100, 120, 140, 200, and 300 mg BID Arm A, and in dose groups of 40, 60, 100, 200, and 300 mg BID Arm B (Table 16).

[1] = 40 mg, 40 mg BID Arm A, C1D1, N=2, mean
[2] = 40 mg, 40 mg BID Arm A, C2D1, N=1
[3] = 40 mg, 40 mg BID Arm B, C1D1, N=4, mean
[4] = 40 mg, 40 mg BID Arm B, C2D1, N=2, mean
[5] = 40 mg, Cycle 1 Day 1, 40 mg BID Arm A (without azole), N=2, mean
[6] = 40 mg, Cycle 1 Day 1, 40 mg BID Arm B (with azole), N=4, mean
[7] = 40 mg, Cycle 2 Day 1, 40 mg BID Arm A (without azole), N=1
[8] = 40 mg, Cycle 2 Day 1, 40 mg BID Arm B (with azole), N=2, mean
[9] = 40 mg, Table 15 cut-off, 40 mg BID Arm A, Cycle 1 Day 1, N=2, mean
[10] = 40 mg, Table 15 cut-off, 40 mg BID Arm A, Cycle 2 Day 1, N=1
[11] = 40 mg, Table 15 cut-off, 40 mg BID Arm B, Cycle 1 Day 1, N=4, mean
[12] = 40 mg, Table 15 cut-off, 40 mg BID Arm B, Cycle 2 Day 1, N=2, mean
[13] = 60 mg, 60 mg BID Arm B, C1D1, N=6, mean
[14] = 60 mg, 60 mg BID Arm B, C2D1, N=4, mean
[15] = 60 mg, Cycle 1 Day 1, 60 mg BID Arm B (with azole), N=6, mean
[16] = 60 mg, Cycle 2 Day 1, 60 mg BID Arm B (with azole), N=4, mean
[17] = 60 mg, Table 15 cut-off, 60 mg BID Arm B, Cycle 1 Day 1, N=6, mean
[18] = 60 mg, Table 15 cut-off, 60 mg BID Arm B, Cycle 2 Day 1, N=4, mean
[19] = 80 mg, 80 mg BID Arm A, C1D1, N=4, mean
[20] = 80 mg, 80 mg BID Arm A, C2D1, N=2, mean
[21] = 80 mg, Cycle 1 Day 1, 80 mg BID Arm A (without azole), N=4, mean
[22] = 80 mg, Cycle 2 Day 1, 80 mg BID Arm A (without azole), N=2, mean
[23] = 80 mg, Table 15 cut-off, 80 mg BID Arm A, Cycle 1 Day 1, N=4, mean
[24] = 80 mg, Table 15 cut-off, 80 mg BID Arm A, Cycle 2 Day 1, N=2, mean
[25] = 100 mg, 100 mg BID Arm A, C1D1, N=2, mean

**Q.** With C=C1C[C@@H]2CC[C@H]1[C@@H](C(=O)N1CCC3(CC1)CN(c1ncncc1Oc1ccc(F)cc1C(=O)N(C(C)C)C(C)C)C3)N2 [the present compound, 5-fluoro-2-[(4-{7-[(1S,3S,4R)-5-methylidene-2-azabicyclo[2.2.2]octane-3-carbonyl]-2,7-diazaspiro[3.5]nonan-2-yl}pyrimidin-5-yl)oxy]-N,N-di(propan-2-yl)benzamide] as the molecule, how does the “drug accumulation with repeat dosing” value (40-200 mg BID cut-off) read?
**A.** minimal drug accumulation

**Q.** What about the “effect of azoles on the exposure” value (40-200 mg BID cut-off) of the same molecule?
**A.** do not have a large effect

**Q.** What about the exposure versus dose (40-200 mg BID cut-off) of the same molecule?
**A.** Dose-dependent increases in exposures

**Q.** And the “drug accumulation with repeat dosing” value (40-300 mg BID cut-off)?
**A.** minimal drug accumulation

**Q.** And the “effect of azoles on the exposure” value (40-300 mg BID cut-off)?
**A.** do not have a large effect

**Q.** What about the exposure versus dose (40-300 mg BID cut-off) of the same molecule?
**A.** Dose-dependent increases in exposures

**Q.** And the exposure versus dose (Arm A, 40, 80, 100, 120 mg BID)?
**A.** a trend of dose-related increased in exposures

**Q.** And the “impact of azoles on the exposure” value (Arm B compared with Arm A, first cut-off)?
**A.** do not have a large or dramatic impact

**Q.** And the “drug accumulation with repeat dosing” value (Cycle 2 Day 1 vs Cycle 1 Day 1, first cut-off)?
**A.** minimal to no drug accumulation

**Q.** What about the “accumulation with repeat dosing” value (FIGS. 4A to 4D cut-off) of the same molecule?
**A.** minimal accumulation

**Q.** And the “large drug-drug interaction (>~2-fold) with azoles” value (FIGS. 4A to 4D cut-off)?
**A.** has not identified

**Q.** What about the “time of maximum concentration” value (40-200 mg BID cut-off) of the same molecule?
**A.** ≤ 2 h

**Q.** What about the “time of maximum concentration” value (40-300 mg BID cut-off) of the same molecule?
**A.** ≤ 2 h

**Q.** What about the exposure versus dose (doses ≥140 mg BID, FIGS. 4A to 4D cut-off) of the same molecule?
**A.** Dose-related increases in exposures

**Q.** And the AUC(0-t) [1]?
**A.** 3920 ng·h/mL

**Q.** And the Cmax [1]?
**A.** 1160 ng/mL

**Q.** And the Tmax [1]?
**A.** 1.25 h

**Q.** What about the half-life [1] of the same molecule?
**A.** 3.35 h

**Q.** And the AUC(0-t) [2]?
**A.** 4710 ng·h/mL

**Q.** And the Cmax [2]?
**A.** 772 ng/mL

**Q.** And the Tmax [2]?
**A.** 2 h

**Q.** What about the half-life [2] of the same molecule?
**A.** 4.57 h

**Q.** What about the AUC(0-t) [3] of the same molecule?
**A.** 3270 ng·h/mL

**Q.** And the Cmax [3]?
**A.** 976 ng/mL

**Q.** What about the Tmax [3] of the same molecule?
**A.** 0.625 h

**Q.** What about the half-life [3] of the same molecule?
**A.** 4.41 h

**Q.** And the AUC(0-t) [4]?
**A.** 5330 ng·h/mL

**Q.** And the Cmax [4]?
**A.** 987 ng/mL

**Q.** What about the Tmax [4] of the same molecule?
**A.** 1.25 h

**Q.** And the half-life [4]?
**A.** 7.29 h

**Q.** What about the AUC(0-t) [5] of the same molecule?
**A.** 3960 ng·h/mL

**Q.** And the Cmax [5]?
**A.** 1160 ng/mL

**Q.** And the AUC(0-t) [6]?
**A.** 3270 ng·h/mL

**Q.** And the Cmax [6]?
**A.** 976 ng/mL

**Q.** What about the AUC(0-t) [7] of the same molecule?
**A.** 4730 ng·h/mL

**Q.** What about the Cmax [7] of the same molecule?
**A.** 772 ng/mL

**Q.** What about the AUC(0-t) [8] of the same molecule?
**A.** 5330 ng·h/mL

**Q.** And the Cmax [8]?
**A.** 987 ng/mL

**Q.** What about the AUC(0-t) [9] of the same molecule?
**A.** 3960 ng·h/mL

**Q.** And the Cmax [9]?
**A.** 1160 ng/mL

**Q.** What about the AUC(0-t) [10] of the same molecule?
**A.** 4730 ng·h/mL

**Q.** And the Cmax [10]?
**A.** 772 ng/mL

**Q.** What about the AUC(0-t) [11] of the same molecule?
**A.** 3270 ng·h/mL

**Q.** And the Cmax [11]?
**A.** 976 ng/mL

**Q.** What about the AUC(0-t) [12] of the same molecule?
**A.** 5330 ng·h/mL

**Q.** And the Cmax [12]?
**A.** 987 ng/mL

**Q.** What about the AUC(0-t) [13] of the same molecule?
**A.** 4140 ng·h/mL

**Q.** And the Cmax [13]?
**A.** 1170 ng/mL

**Q.** What about the Tmax [13] of the same molecule?
**A.** 1.08 h

**Q.** What about the half-life [13] of the same molecule?
**A.** 2.61 h

**Q.** And the AUC(0-t) [14]?
**A.** 2610 ng·h/mL

**Q.** And the Cmax [14]?
**A.** 703 ng/mL

**Q.** And the Tmax [14]?
**A.** 0.75 h

**Q.** What about the half-life [14] of the same molecule?
**A.** 3.19 h

**Q.** And the AUC(0-t) [15]?
**A.** 4240 ng·h/mL

**Q.** And the Cmax [15]?
**A.** 1170 ng/mL

**Q.** And the AUC(0-t) [16]?
**A.** 2690 ng·h/mL

**Q.** And the Cmax [16]?
**A.** 751 ng/mL

**Q.** What about the AUC(0-t) [17] of the same molecule?
**A.** 4240 ng·h/mL

**Q.** And the Cmax [17]?
**A.** 1170 ng/mL

**Q.** And the AUC(0-t) [18]?
**A.** 2690 ng·h/mL

**Q.** And the Cmax [18]?
**A.** 751 ng/mL

**Q.** What about the AUC(0-t) [19] of the same molecule?
**A.** 5150 ng·h/mL

**Q.** And the Cmax [19]?
**A.** 1620 ng/mL

**Q.** And the Tmax [19]?
**A.** 1.25 h

**Q.** What about the half-life [19] of the same molecule?
**A.** 2.82 h

**Q.** What about the AUC(0-t) [20] of the same molecule?
**A.** 2900 ng·h/mL

**Q.** What about the Cmax [20] of the same molecule?
**A.** 1400 ng/mL

**Q.** And the Tmax [20]?
**A.** 0.75 h

**Q.** And the half-life [20]?
**A.** 3.4 h

**Q.** What about the AUC(0-t) [21] of the same molecule?
**A.** 5110 ng·h/mL

**Q.** What about the Cmax [21] of the same molecule?
**A.** 1620 ng/mL

**Q.** What about the AUC(0-t) [22] of the same molecule?
**A.** 2900 ng·h/mL

**Q.** What about the Cmax [22] of the same molecule?
**A.** 1400 ng/mL

**Q.** What about the AUC(0-t) [23] of the same molecule?
**A.** 5110 ng·h/mL

**Q.** What about the Cmax [23] of the same molecule?
**A.** 1620 ng/mL

**Q.** And the AUC(0-t) [24]?
**A.** 2900 ng·h/mL

**Q.** And the Cmax [24]?
**A.** 1400 ng/mL

**Q.** What about the AUC(0-t) [25] of the same molecule?
**A.** 4940 ng·h/mL

**Q.** And the Cmax [25]?
**A.** 1380 ng/mL
